Results published in ChEMBL document CHEMBL5550100, “Discovery of LHF418 as a new potent SOS1 PROTAC degrader” (Bioorg Med Chem, 2024).
Calls of active or inactive are those of the source. The rule behind the calls is not given here.

Experiments:
Type in all cases: cell-based
[1] = biological target: T1, Protein cereblon/Son of sevenless homolog 1 (Homo sapiens, UniProt Q07889+Q96SW2); test: PROTAC activity at CRBN/SOS1 in human A549 cells assessed as protein degradation at 0.1 uM incubated for 24 hrs by immunoblot analysis relative to control
T1 sequence (Q07889 whole entry, looked up): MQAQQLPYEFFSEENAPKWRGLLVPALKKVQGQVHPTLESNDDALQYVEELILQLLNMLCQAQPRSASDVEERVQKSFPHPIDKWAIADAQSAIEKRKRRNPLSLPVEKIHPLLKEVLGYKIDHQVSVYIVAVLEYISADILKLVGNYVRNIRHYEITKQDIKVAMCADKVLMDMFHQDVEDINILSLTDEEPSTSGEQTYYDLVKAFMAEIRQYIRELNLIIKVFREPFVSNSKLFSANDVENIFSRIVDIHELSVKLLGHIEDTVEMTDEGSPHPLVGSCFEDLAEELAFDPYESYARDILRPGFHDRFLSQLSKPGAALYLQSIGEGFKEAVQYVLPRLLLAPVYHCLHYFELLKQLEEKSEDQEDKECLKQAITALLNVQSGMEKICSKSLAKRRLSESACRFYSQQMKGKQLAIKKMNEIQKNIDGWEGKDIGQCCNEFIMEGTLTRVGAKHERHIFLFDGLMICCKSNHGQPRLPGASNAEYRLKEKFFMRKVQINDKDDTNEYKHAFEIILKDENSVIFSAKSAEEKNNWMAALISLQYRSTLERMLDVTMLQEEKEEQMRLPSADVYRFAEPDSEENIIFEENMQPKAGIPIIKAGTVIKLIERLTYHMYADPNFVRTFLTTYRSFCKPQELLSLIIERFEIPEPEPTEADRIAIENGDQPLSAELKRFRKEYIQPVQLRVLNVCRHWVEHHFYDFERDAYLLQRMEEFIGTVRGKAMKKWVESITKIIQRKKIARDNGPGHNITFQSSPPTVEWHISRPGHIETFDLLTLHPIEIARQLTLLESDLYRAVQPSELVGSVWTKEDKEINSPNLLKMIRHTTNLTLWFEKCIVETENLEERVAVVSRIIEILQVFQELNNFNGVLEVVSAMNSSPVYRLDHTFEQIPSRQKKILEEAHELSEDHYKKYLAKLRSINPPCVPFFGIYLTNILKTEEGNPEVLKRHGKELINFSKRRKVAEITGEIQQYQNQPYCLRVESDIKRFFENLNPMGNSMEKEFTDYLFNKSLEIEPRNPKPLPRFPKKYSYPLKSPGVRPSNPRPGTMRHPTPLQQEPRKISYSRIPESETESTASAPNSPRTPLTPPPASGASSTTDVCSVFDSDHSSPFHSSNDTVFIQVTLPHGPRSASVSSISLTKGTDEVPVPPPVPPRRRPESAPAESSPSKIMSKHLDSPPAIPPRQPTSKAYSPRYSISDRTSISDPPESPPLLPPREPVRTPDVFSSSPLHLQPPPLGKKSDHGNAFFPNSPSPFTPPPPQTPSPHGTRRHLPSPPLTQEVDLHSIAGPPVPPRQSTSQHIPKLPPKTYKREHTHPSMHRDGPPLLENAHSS
T1 sequence (Q96SW2 whole entry, looked up): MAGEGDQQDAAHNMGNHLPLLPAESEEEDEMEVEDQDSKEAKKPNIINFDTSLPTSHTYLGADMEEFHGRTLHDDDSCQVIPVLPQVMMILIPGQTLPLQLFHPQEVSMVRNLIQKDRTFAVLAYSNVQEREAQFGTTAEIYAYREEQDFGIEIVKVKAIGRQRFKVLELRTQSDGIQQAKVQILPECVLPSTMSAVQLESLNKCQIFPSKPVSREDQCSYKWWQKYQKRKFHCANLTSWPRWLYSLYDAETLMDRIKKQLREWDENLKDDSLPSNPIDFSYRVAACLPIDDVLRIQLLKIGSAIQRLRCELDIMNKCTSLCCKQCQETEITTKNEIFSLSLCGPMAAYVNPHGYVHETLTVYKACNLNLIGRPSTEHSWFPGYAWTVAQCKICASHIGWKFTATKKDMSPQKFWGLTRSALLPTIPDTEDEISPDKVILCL

[2] = biological target: T1, Protein cereblon/Son of sevenless homolog 1; test: PROTAC activity at CRBN/SOS1 in human A549 cells assessed as protein degradation at 1 uM incubated for 24 hrs by immunoblot analysis relative to control
[3] = biological target: T1, Protein cereblon/Son of sevenless homolog 1; test: PROTAC activity at CRBN/SOS1 in human A549 cells assessed as protein degradation at 10 uM incubated for 24 hrs by immunoblot analysis relative to control
[4] = biological target: T1, Protein cereblon/Son of sevenless homolog 1; test: PROTAC activity at CRBN/SOS1 in human A549 cells assessed as half life of SOS1 at 3 uM incubated for 24 hrs by immunoblot analysis
[5] = biological target: T1, Protein cereblon/Son of sevenless homolog 1; test: PROTAC activity at CRBN/SOS1 in human A549 cells assessed as protein degradation at 10 uM incubated for 24 hrs by immunoblot analysis

Compound | Activity [1] [%] | Activity [2] [%] | Activity [3] [%] | T1/2 [4] [h] | Activity [5]
COc1cc2nc(C)nc(N[C@H](C)c3cc(N)cc(C(F)(F)F)c3)c2cc1O[C@H]1CCN(C(=O)CC(=O)Nc2ccc3c(c2)C(=O)N(C2CCC(=O)NC2=O)C3)C1 (some centres undefined) | 8.5 | 6.1 | 7.5 | – | –
COc1cc2nc(C)nc(N[C@H](C)c3cc(N)cc(C(F)(F)F)c3)c2cc1O[C@H]1CCN(C(=O)CCCCCCCCC(=O)Nc2cccc3c2C(=O)N(C2CCC(=O)NC2=O)C3)C1 (some centres undefined) | 6.4 | 6.7 | 18.1 | – | –
COc1cc2nc(C)nc(N[C@H](C)c3cc(N)cc(C(F)(F)F)c3)c2cc1O[C@H]1CCN(C(=O)CCCCC(=O)Nc2cccc3c2C(=O)N(C2CCC(=O)NC2=O)C3)C1 (some centres undefined) | 5.6 | 1.6 | 10.2 | – | –
COc1cc2nc(C)nc(N[C@H](C)c3cc(N)cc(C(F)(F)F)c3)c2cc1O[C@H]1CCN(C(=O)CCCCCCCNc2ccc3c(c2)C(=O)N(C2CCC(=O)NC2=O)C3=O)C1 (some centres undefined) | 6.6 | 20.9 | 42.9 | – | –
COc1cc2nc(C)nc(N[C@H](C)c3cc(N)cc(C(F)(F)F)c3)c2cc1O[C@H]1CCN(C(=O)CCCCCNc2ccc3c(c2)C(=O)N(C2CCC(=O)NC2=O)C3=O)C1 (some centres undefined) | 5.6 | 11.9 | 19.3 | – | –
COc1cc2nc(C)nc(N[C@H](C)c3cc(N)cc(C(F)(F)F)c3)c2cc1O[C@H]1CCN(C(=O)CCCCCCCCC(=O)Nc2ccc3c(c2)C(=O)N(C2CCC(=O)NC2=O)C3)C1 (some centres undefined) | 0 | 2.5 | 0.6 | – | –
COc1cc2nc(C)nc(N[C@H](C)c3cc(N)cc(C(F)(F)F)c3)c2cc1O[C@H]1CCN(C(=O)CCCCCCC(=O)Nc2cccc3c2C(=O)N(C2CCC(=O)NC2=O)C3)C1 (some centres undefined) | 2.6 | 0 | 3.7 | – | –
COc1cc2nc(C)nc(N[C@H](C)c3cc(N)cc(C(F)(F)F)c3)c2cc1O[C@H]1CCN(C(=O)CC(=O)Nc2cccc3c2CN(C2CCC(=O)NC2=O)C3=O)C1 (some centres undefined) | 1 | 4.7 | 7 | – | –
COc1cc2nc(C)nc(N[C@H](C)c3cc(N)cc(C(F)(F)F)c3)c2cc1O[C@H]1CCN(C(=O)CCCCCCCNc2cccc3c2C(=O)N(C2CCC(=O)NC2=O)C3=O)C1 (some centres undefined) | 15.3 | 13 | 6.1 | – | –
COc1cc2nc(C)nc(N[C@H](C)c3cc(N)cc(C(F)(F)F)c3)c2cc1O[C@H]1CCN(C(=O)CCCCCCC(=O)Nc2ccc3c(c2)C(=O)N(C2CCC(=O)NC2=O)C3)C1 (some centres undefined) | 7.9 | 37.6 | 8.2 | – | –
COc1cc2nc(C)nc(N[C@H](C)c3cc(N)cc(C(F)(F)F)c3)c2cc1O[C@H]1CCN(C(=O)CCCCCNc2cccc3c2C(=O)N(C2CCC(=O)NC2=O)C3=O)C1 (some centres undefined) | 14.3 | 5.7 | 6.7 | – | –
COc1cc2nc(C)nc(N[C@H](C)c3cc(N)cc(C(F)(F)F)c3)c2cc1O[C@H]1CCN(C(=O)CCCCCCCCC(=O)Nc2ccc3c(c2)CN(C2CCC(=O)NC2=O)C3=O)C1 (some centres undefined) | 0 | 9.5 | 9 | – | –
C[C@@H]1C[C@@H]([C@H](O)CC2CC(=O)NC(=O)C2)C(=O)[C@@H](C)C1 | – | – | – | > 24 | –
COc1cc2nc(C)nc(N[C@H](C)c3cc(N)cc(C(F)(F)F)c3)c2cc1O[C@H]1CCN(C(=O)CNc2cccc3c2C(=O)N(C2CCC(=O)NC2=O)C3=O)C1 (some centres undefined) | 1.7 | 2.6 | 0 | – | –
COc1cc2nc(C)nc(N[C@H](C)c3cc(N)cc(C(F)(F)F)c3)c2cc1O[C@H]1CCN(C(=O)CCCCC(=O)Nc2ccc3c(c2)CN(C2CCC(=O)NC2=O)C3=O)C1 (some centres undefined) | 7.1 | 10 | 15.6 | – | –
COc1cc2nc(C)nc(N[C@H](C)c3cc(N)cc(C(F)(F)F)c3)c2cc1O[C@H]1CCN(C(=O)CCC(=O)Nc2cccc3c2C(=O)N(C2CCC(=O)NC2=O)C3)C1 (some centres undefined) | 0 | 9.6 | 0 | – | –

Compound | Activity [1] [%] | Activity [2] [%] | Activity [3] [%] | T1/2 [4] [h] | Activity [5]
COc1cc2nc(C)nc(N[C@H](C)c3cc(N)cc(C(F)(F)F)c3)c2cc1O[C@H]1CCN(C(=O)CCCCCCC(=O)Nc2cccc3c2CN(C2CCC(=O)NC2=O)C3=O)C1 (some centres undefined) | 2.1 | 31.9 | 65.4 | – | –
COc1cc2nc(C)nc(N[C@H](C)c3cc(N)cc(C(F)(F)F)c3)c2cc1O[C@H]1CCN(C(=O)CCCCCCCCCCC(=O)Nc2cccc3c2CN(C2CCC(=O)NC2=O)C3=O)C1 (some centres undefined) | 0 | 0 | 0 | – | –
COc1cc2nc(C)nc(N[C@H](C)c3cc(N)cc(C(F)(F)F)c3)c2cc1O[C@H]1CCN(C(=O)CCCNc2cccc3c2C(=O)N(C2CCC(=O)NC2=O)C3=O)C1 (some centres undefined) | 0.9 | 0 | 8 | – | –
COc1cc2nc(C)nc(N[C@H](C)c3cc(N)cc(C(F)(F)F)c3)c2cc1O[C@H]1CCN(C(=O)CCC(=O)Nc2ccc3c(c2)CN(C2CCC(=O)NC2=O)C3=O)C1 (some centres undefined) | 0 | 0 | 2.4 | – | –
COc1cc2nc(C)nc(N[C@H](C)c3cc(N)cc(C(F)(F)F)c3)c2cc1O[C@H]1CCN(C(=O)CCCCCCCC(=O)Nc2cccc3c2CN(C2CCC(=O)N(C)C2=O)C3=O)C1 (some centres undefined) | – | – | – | – | inactive
COc1cc2nc(C)nc(N[C@H](C)c3cc(N)cc(C(F)(F)F)c3)c2cc1O[C@H]1CCN(C(=O)CNc2ccc3c(c2)C(=O)N(C2CCC(=O)NC2=O)C3=O)C1 (some centres undefined) | 0 | 0 | 1.5 | – | –
COc1cc2nc(C)nc(N[C@H](C)c3cc(N)cc(C(F)(F)F)c3)c2cc1O[C@H]1CCN(C(=O)CC(=O)Nc2cccc3c2C(=O)N(C2CCC(=O)NC2=O)C3)C1 (some centres undefined) | 0 | 11.6 | 9.2 | – | –
COc1cc2nc(C)nc(N[C@H](C)c3cc(N)cc(C(F)(F)F)c3)c2cc1O[C@H]1CCN(C(=O)CCCNc2ccc3c(c2)C(=O)N(C2CCC(=O)NC2=O)C3=O)C1 (some centres undefined) | 4 | 8.9 | 9.4 | – | –
COc1cc2nc(C)nc(N[C@H](C)c3cc(N)cc(C(F)(F)F)c3)c2cc1O[C@H]1CCN(C(=O)CCCCC(=O)Nc2cccc3c2CN(C2CCC(=O)NC2=O)C3=O)C1 (some centres undefined) | 1.8 | 0 | 0 | – | –
COc1cc2nc(C)nc(N[C@H](C)c3cc(N)cc(C(F)(F)F)c3)c2cc1O[C@H]1CCN(C(=O)CCCCC(=O)Nc2ccc3c(c2)C(=O)N(C2CCC(=O)NC2=O)C3)C1 (some centres undefined) | 2.7 | 12.2 | 37.6 | – | –
COc1cc2nc(C)nc(N[C@H](C)c3cc(N)cc(C(F)(F)F)c3)c2cc1O[C@H]1CCN(C(=O)CCCCCCCCC(=O)Nc2cccc3c2CN(C2CCC(=O)NC2=O)C3=O)C1 (some centres undefined) | 11.4 | 39.1 | 26.1 | – | –
COc1cc2nc(C)nc(N[C@H](C)c3cc(N)cc(C(F)(F)F)c3)c2cc1O[C@H]1CCN(C(=O)CCCCCCCCCNc2ccc3c(c2)C(=O)N(C2CCC(=O)NC2=O)C3=O)C1 (some centres undefined) | 0 | 0 | 0 | – | –
COc1cc2nc(C)nc(N[C@H](C)c3cc(N)cc(C(F)(F)F)c3)c2cc1O[C@H]1CCN(C(=O)CCCCCCC(=O)Nc2ccc3c(c2)CN(C2CCC(=O)NC2=O)C3=O)C1 (some centres undefined) | 3.9 | 57.7 | 4.1 | – | –
COc1cc2nc(C)nc(N[C@H](C)c3cc(N)cc(C(F)(F)F)c3)c2cc1O[C@H]1CCN(C(=O)CC(=O)Nc2ccc3c(c2)CN(C2CCC(=O)NC2=O)C3=O)C1 (some centres undefined) | 0 | 4 | 9.3 | – | –
COc1cc2nc(C)nc(N[C@H](C)c3cc(N)cc(C(F)(F)F)c3)c2cc1O[C@H]1CCN(C(=O)CCC(=O)Nc2ccc3c(c2)C(=O)N(C2CCC(=O)NC2=O)C3)C1 (some centres undefined) | 13.7 | 20 | 35.6 | – | –
